Source: US20240287037A1, “CYCLOALKYL COMPOUNDS AND PHARMACEUTICAL COMPOSITIONS THAT MODULATE IKZF2” (Plexium, Inc., priority 2021, published 2024)

What was measured:
Type in all cases: cell-based
[1] = target: IKZF1 (Ikaros) (Homo sapiens (Human), UniProt Q13422+Q96SW2); assay: IKZF1 reporter degradation assay (HEK 293T IKZF1-mNeonGreen reporter cell line); settings: HEK 293T reporter cells, 24 hour incubation
Source text: (§1) Polycistronic plasmids were constructed for the mammalian expression of fluorescent reporter fusions of human transcription factors IKZF1 (Ikaros), IKZF2 (Helios), and IKZF3 (Aiolos). The respective protein sequences had their C-terminal end joined to a GGGGS linker repeated three times followed by mNeonGreen, P2A sequence, and mScarlet. The DNA sequences of the open reading frames are as follows:
(§2) IKZF1, IKZF2, and IKZF3 constructs were cloned into the UCOE Hygromycin expression vectors (Millipore Sigma). Reporter constructs were transfected using cationic lipid reagents into adherent HEK 293T cells and stable integrants were selected by treatment with 200 μg/mL hygromycin B. Clonal populations were obtained from the population of stable integrants either by limiting dilution or fluorescence activated cell sorting.
(§3) The clonal stable cell lines were maintained under constant 200 μg/mL hygromycin B selection while being passaged for use in the degradation assays. […] The fluorescence intensity of the IKZF1/2/3-mNeonGreen (FITC channel) and mScarlet (PE channel) reporters were routinely analyzed by flow cytometry to confirm consistent expression levels between experiments.
(§4) The IKZF1/IKZF2/IKZF3 degradation assays were carried out by harvesting the HEK 293T reporter cell lines and resuspending the cells in media formulated for reduced background fluorescence (FluoroBrite; Thermo Fisher). The respective cell lines were seeded at a density of 4000 cells/well into black-walled 384-well optical grade assay tissue culture plates. The cells were incubated overnight at 37° C. to allow for attachment to the assay plate. Dilutions of the compounds were prepared in DMSO from 10 mM compound stocks. The assay plates were treated with appropriate concentrations of the compounds by dispensing the DMSO dilutions in quadruplicate wells with an upper limit of 0.5% final DMSO.
(§5) After 24 hour incubation with the compounds, the assay plates were imaged on an ImageXpress Pico microscopy system (cells maintained at 37° C. during imaging) to obtain the fluorescent readouts. The assay plates were imaged in the FITC and Tetramethylrhodamine (TRITC) channels to obtain the mNeonGreen fluorescence intensity (reporter degradation data) and mScarlet fluorescence intensity (for cell segmentation). 293T-IKZF1 and 293T-IKZF3 reporter cell lines were imaged with exposures of 500 milliseconds (ms) for both FITC and TRITC channels, while the 293T-IKZF2 reporter cell line was imaged with exposures of 1000 ms for FITC and 1250 ms for TRITC. The resulting data was analyzed with Cell Reporter Xpress software using the 2-channel cell scoring analysis with a “percent positive” readout. The TRITC channel was selected for the “nuclei” segmentation with a threshold of 20 while the FITC channel was selected for the “Marker 1” segmentation and a threshold of 100 for the IKZF and IKZF3 reporter lines. […] The minimum segmentation width was set to 6 micrometers and the maximum segmentation width was set to 15 micrometers for all cell lines. The DC50 calculations were determined by regression to best fit four-parameter logistic curves using GraphPad Prism.

[2] = target: IKZF2 (Helios) (Homo sapiens (Human), UniProt Q96SW2+Q9UKS7); assay: IKZF2 reporter degradation assay (HEK 293T IKZF2-mNeonGreen reporter cell line); settings: 24 hour incubation; for inhibition at 1 µM: HEK-293T, 24 h
Chain of IKZF2 (Helios) (Q9UKS7 whole entry): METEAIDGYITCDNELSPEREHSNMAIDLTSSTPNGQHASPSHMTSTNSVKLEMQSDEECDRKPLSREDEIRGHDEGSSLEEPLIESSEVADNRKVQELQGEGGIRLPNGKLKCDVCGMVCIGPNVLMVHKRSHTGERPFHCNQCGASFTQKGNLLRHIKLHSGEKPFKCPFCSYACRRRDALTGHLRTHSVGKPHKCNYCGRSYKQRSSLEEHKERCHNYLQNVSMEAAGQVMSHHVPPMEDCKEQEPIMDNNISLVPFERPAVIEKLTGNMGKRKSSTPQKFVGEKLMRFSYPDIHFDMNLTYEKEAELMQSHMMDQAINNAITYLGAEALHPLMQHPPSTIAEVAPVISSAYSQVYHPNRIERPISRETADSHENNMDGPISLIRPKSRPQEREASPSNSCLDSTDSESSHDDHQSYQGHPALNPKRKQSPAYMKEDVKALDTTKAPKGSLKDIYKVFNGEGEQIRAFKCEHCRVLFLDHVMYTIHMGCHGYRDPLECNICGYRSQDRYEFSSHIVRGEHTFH
Chain of IKZF2 (Helios) (Q96SW2 whole entry): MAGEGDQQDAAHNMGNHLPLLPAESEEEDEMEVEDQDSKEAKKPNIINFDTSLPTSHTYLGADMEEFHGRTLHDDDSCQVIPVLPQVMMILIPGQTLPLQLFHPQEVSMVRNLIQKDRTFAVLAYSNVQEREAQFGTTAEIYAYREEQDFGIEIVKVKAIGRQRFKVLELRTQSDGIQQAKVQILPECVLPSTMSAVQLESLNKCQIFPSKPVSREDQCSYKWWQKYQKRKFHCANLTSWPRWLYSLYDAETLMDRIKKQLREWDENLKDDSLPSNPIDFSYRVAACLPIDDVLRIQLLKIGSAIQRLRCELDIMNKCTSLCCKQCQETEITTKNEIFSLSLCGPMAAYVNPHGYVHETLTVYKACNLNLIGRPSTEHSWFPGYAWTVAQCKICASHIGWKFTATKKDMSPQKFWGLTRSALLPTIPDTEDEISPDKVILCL
Chain of IKZF2 (Helios) (Q16531 whole entry partner): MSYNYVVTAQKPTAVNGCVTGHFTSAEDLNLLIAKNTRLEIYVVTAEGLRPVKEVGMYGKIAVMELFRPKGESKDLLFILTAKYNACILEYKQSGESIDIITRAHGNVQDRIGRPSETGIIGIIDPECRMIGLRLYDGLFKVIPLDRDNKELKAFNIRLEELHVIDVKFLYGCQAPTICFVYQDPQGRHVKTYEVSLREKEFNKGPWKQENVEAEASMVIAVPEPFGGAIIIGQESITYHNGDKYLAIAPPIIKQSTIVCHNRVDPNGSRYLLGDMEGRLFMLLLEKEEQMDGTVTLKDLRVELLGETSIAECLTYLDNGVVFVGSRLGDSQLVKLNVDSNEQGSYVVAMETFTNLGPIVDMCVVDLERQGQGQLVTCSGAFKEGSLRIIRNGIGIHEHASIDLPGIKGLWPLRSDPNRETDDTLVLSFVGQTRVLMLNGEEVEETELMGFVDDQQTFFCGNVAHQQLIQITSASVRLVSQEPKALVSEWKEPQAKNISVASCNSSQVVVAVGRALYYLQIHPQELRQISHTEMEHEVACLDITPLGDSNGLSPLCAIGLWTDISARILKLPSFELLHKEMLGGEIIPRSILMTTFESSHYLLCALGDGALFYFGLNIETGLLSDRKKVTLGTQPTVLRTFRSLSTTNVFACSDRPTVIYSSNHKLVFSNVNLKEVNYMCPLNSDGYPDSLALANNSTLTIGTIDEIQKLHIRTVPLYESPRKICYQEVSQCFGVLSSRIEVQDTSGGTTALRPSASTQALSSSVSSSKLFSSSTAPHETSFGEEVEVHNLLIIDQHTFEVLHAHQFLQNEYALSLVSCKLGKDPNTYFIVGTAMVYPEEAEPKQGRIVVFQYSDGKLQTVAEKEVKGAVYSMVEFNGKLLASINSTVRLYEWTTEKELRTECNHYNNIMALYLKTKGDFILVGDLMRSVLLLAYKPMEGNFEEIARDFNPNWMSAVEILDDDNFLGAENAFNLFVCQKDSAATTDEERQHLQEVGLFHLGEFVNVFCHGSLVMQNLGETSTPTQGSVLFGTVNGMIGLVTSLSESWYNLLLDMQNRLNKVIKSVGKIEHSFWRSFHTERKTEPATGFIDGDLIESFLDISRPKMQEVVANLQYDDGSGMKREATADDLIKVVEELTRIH
Source text: as §1, §2, §3, §4, §5

[3] = target: GSPT1 (Homo sapiens (Human), UniProt P15170+Q96SW2); assay: GSPT1 reporter degradation assay (HEK293 hGSPT1 HiBiT-tagged cells); settings: 24 hour incubation
Chain of GSPT1 (P15170 whole entry): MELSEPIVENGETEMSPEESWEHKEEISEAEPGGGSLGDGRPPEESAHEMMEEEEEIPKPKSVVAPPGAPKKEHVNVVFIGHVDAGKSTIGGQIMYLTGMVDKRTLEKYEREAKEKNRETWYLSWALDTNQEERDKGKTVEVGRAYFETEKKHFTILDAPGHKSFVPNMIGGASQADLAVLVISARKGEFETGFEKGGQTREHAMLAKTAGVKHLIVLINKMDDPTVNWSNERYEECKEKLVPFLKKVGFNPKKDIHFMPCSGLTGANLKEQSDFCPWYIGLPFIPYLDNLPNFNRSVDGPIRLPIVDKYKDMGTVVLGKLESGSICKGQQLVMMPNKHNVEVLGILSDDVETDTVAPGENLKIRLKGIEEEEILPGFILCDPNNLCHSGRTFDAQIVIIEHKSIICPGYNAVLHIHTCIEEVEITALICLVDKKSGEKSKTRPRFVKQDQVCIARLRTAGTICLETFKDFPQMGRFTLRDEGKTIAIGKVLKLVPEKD
Chain of GSPT1 (Q96SW2 whole entry): as the sequence (Q96SW2 whole entry) above
Chain of GSPT1 (Q16531 whole entry partner): as the sequence (Q16531 whole entry partner) above
Method: HEK293_hGSPT1_HiBiT-tagged cells were generated using CRISPR-Cas12a technology. Briefly, ˜400,000 HEK293 cells were transiently co-transfected with precomplexed ribonuclear proteins (RNPs) consisting of […] of crRNA (IDT), […] of Cas12a protein (IDT), 3 μg of ssODN donor (IDT; AltRTM modifications), 78 pmol of electroporation enhancer (IDT), and 200 ng of pMaxGFP (Lonza). The transfection was performed via nucleofection (Lonza, 4D-Nucleofector X-unit) using solution P3 and program CM-130 in a (20 μL) cuvette. Five days post-nucleofection, cells were single-cell-sorted for GFP+ (transfected) cells by FACs in 96-well plates and clonally selected. Clones were screened and verified for the desired modification via targeted deep sequencing using gene-specific primers with partial Illumina adapter overhangs as previously described. In brief, clonal cell pellets were harvested, lysed, and used to generate gene-specific amplicons with partial Illumina adapters in PCR #1. Amplicons were indexed in PCR #2 and pooled with other targeted amplicons for other loci to create sequence diversity. Additionally, 10% PhiX sequencing control V3 (Illumina) was added to the pooled amplicon library prior to running the sample on a Miseq Sequencer System (Illumina) to generate paired 2×250 bp reads. Samples were demultiplexed using the index sequences, fastq files were generated, and NGS analysis was performed using CRIS.py.
The GSTP1 degradation assay was carried out by harvesting the HEK 293T reporter cell lines and resuspending the cells in media formulated for reduced background fluorescence (FluoroBrite; Thermo Fisher). The respective cell lines were seeded at a density of 8,000 cells/well into white-opaque 384-well optical grade assay tissue culture plates (Greiner 781080-20). The cells were incubated overnight at 37° C. to allow for attachment to the assay plate. Dilutions of the compounds were prepared in DMSO from 10 mM compound stocks. […] Plates were centrifuged at 320×g for 2 minutes at room temperature, and subsequently incubated at 37° C.
After 24 hour incubation with the compounds, the plates were allowed to cool to room temperature for 10 minutes. 30 μL of HiBiT lytic buffer+1:50 HiBiT substrate Solution were added to each well. Plates were centrifuged at 320×g for 2 minutes at room temperature and then incubated with shaking at room temperature for 10 minutes covered with foil. Plates were read on a CLARIOstar microplate reader (BMG LabTech), measuring at 450 nm (donor emission) and 610 nm or 630 nm (acceptor emission). The DC50 values were determined by regression to best fit four-parameter logistic curves using GraphPad Prism.

[4] = Table 3, HEK 293T reporter cells
[5] = second (untitled) table after Table 3

Chain of IKZF1 (Ikaros) (Q13422 whole entry, the tested form may be a part): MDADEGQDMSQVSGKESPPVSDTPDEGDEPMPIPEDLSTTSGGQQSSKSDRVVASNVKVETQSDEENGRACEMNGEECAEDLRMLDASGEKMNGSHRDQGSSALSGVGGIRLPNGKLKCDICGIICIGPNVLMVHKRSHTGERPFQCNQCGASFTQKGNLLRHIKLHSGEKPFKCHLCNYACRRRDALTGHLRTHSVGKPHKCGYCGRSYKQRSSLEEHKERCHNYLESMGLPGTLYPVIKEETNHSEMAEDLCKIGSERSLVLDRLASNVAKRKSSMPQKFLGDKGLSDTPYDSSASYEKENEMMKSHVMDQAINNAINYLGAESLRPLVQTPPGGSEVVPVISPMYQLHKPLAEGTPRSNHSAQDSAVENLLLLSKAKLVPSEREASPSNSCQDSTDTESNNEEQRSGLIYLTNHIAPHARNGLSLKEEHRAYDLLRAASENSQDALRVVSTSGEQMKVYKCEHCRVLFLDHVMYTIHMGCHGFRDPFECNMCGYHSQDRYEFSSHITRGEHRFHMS
Chain of IKZF1 (Ikaros) (Q96SW2 whole entry, the tested form may be a part): as the sequence (Q96SW2 whole entry) above
Chain of IKZF1 (Ikaros) (Q16531 whole entry partner, the tested form may be a part): as the sequence (Q16531 whole entry partner) above

SMILES | DC50 [1] | DC50 ([2]; HEK 293T reporter cells) | inhibition at 1 µM [2, 4] | inhibition at 1 µM [2, 5] | DC50 [3] | IKZF2% Degradation @ 1 μM [2, 4] | IKZF2% Degradation @ 1 μM [2, 5]
CCOC1CCC(C2CN([C@H]3CCCC[C@@H]3Oc3ccc4c(c3)CN(C3CCC(=O)NC3=O)C4=O)C2)CC1 (stereo partly drawn) [Compound 19, 3-(5-(((1S,2S)-2-(3-(4-ethoxycyclohexyl)azetidin-1-yl)cyclohexyl)oxy)-1-oxoisoindolin-2-yl)piperidine-2,6-dione] | > 30 µM | 2 nM | 72.8% | 72.8% | > 30 µM |  | 
O=C1CCC(N2Cc3cc(O[C@H]4CCC[C@@H]4N4CC(C5CC5)C4)ccc3C2=O)C(=O)N1 (stereo partly drawn) [Compound 22, 3-(5-(((1S,2S)-2-(3-cyclopropylazetidin-1-yl)cyclopentyl)oxy)-1-oxoisoindolin-2-yl)piperidine-2,6-dione] | > 30 µM | 9 nM | 82.6% | 82.6% | > 30 µM |  | 
O=C1CCC(N2Cc3cc(O[C@H]4CCCC[C@@H]4N4CC(C5CC(F)(F)C5)C4)ccc3C2=O)C(=O)N1 (stereo partly drawn) [Compound 18, 3-(5-(((1S,2S)-2-(3-(3,3-difluorocyclobutyl)azetidin-1-yl)cyclohexyl)oxy)-1-oxoisoindolin-2-yl)piperidine-2,6-dione] | > 30 µM | 29 nM | 71.1% | 95.8% | > 30 µM |  | 
O=C1CCC(N2Cc3cc(O[C@H]4CCCC[C@@H]4N4CC(C5CC5)C4)ccc3C2=O)C(=O)N1 (stereo partly drawn) [Compound 3, 3-(5-(((1S,2S)-2-(3-cyclopropylazetidin-1-yl)cyclohexyl)oxy)-1-oxoisoindolin-2-yl)piperidine-2,6-dione] | > 30 µM | 12 nM | 67.7% | 67.7% | > 30 µM |  | 
O=C1CCC(N2Cc3cc(O[C@H]4CCC[C@@H]4N4CC(C5CCC(F)(F)CC5)C4)ccc3C2=O)C(=O)N1 (stereo partly drawn) [Compound 13, 3-(5-(((1S,2S)-2-(3-(4,4-difluorocyclohexyl)azetidin-1-yl)cyclopentyl)oxy)-1-oxoisoindolin-2-yl)piperidine-2,6-dione] | > 30 µM | 5 nM | 75.9% | 75.9% | > 30 µM |  | 
CC(C)OC1CCC(C2CN([C@H]3CCCC[C@@H]3Oc3ccc4c(c3)CN(C3CCC(=O)NC3=O)C4=O)C2)CC1 (stereo partly drawn) [Compound 16, 3-(5-(((1S,2S)-2-(3-((cis)-4-isopropoxycyclohexyl)azetidin-1-yl)cyclohexyl)oxy)-1-oxoisoindolin-2-yl)piperidine-2,6-dione] | > 30 µM | 1 nM | 95.5% | 95.5% | > 30 µM |  | 
O=C1CCC(N2Cc3c(ccc(O[C@H]4CCCC[C@@H]4N4CC(C5CC5)C4)c3F)C2=O)C(=O)N1 (stereo partly drawn) [Compound 24, 3-(5-(((1S,2S)-2-(3-cyclopropylazetidin-1-yl)cyclohexyl)oxy)-4-fluoro-1-oxoisoindolin-2-yl)piperidine-2,6-dione] | > 30 µM | 18 nM | 85.8% | 85.8% | > 30 µM |  | 

Results, then the compound that gave them:

DC50 [1] | DC50 ([2]; HEK 293T reporter cells) | inhibition at 1 µM [2, 4] | inhibition at 1 µM [2, 5] | DC50 [3] | IKZF2% Degradation @ 1 μM [2, 4] | IKZF2% Degradation @ 1 μM [2, 5] | SMILES
> 30 µM | 25 nM | 77.8% | 77.8% | > 30 µM |  |  | O=C1CCC(N2Cc3cc(O[C@H]4CCCC[C@@H]4N4CC(C5CC5)C4)c(F)cc3C2=O)C(=O)N1 (stereo partly drawn) [Compound 26, 3-(5-(((1S,2S)-2-(3-cyclopropylazetidin-1-yl)cyclohexyl)oxy)-6-fluoro-1-oxoisoindolin-2-yl)piperidine-2,6-dione]
> 30 µM | 2 nM | 86.7% | 86.7% | > 30 µM |  |  | O=C1CCC(N2Cc3cc(O[C@H]4CCCC[C@@H]4N4CC(C5CCC(OC(F)F)CC5)C4)ccc3C2=O)C(=O)N1 (stereo partly drawn) [Compound 21, 3-(5-(((1S,2S)-2-(3-(4-(difluoromethoxy)cyclohexyl)azetidin-1-yl)cyclohexyl)oxy)-1-oxoisoindolin-2-yl)piperidine-2,6-dione]
> 30 µM | 4 nM | 85% | 85% | > 30 µM |  |  | O=C1CCC(N2Cc3cc(O[C@H]4CCCC[C@@H]4N4CC(C5CCC5)C4)ccc3C2=O)C(=O)N1 (stereo partly drawn) [Compound 5, 3-(5-(((1S,2S)-2-(3-cyclobutylazetidin-1-yl)cyclohexyl)oxy)-1-oxoisoindolin-2-yl)piperidine-2,6-dione]
> 30 µM | 20 nM | 84.1% | 84.1% | > 30 µM |  |  | O=C1CCC(N2Cc3cc(O[C@H]4CCCC[C@@H]4N4CC(C5CCC5)C4)c(F)cc3C2=O)C(=O)N1 (stereo partly drawn) [Compound 27, 3-(5-(((1S,2S)-2-(3-cyclobutylazetidin-1-yl)cyclohexyl)oxy)-6-fluoro-1-oxoisoindolin-2-yl)piperidine-2,6-dione]
> 30 µM | 3 nM | 85% | 85% | > 30 µM |  |  | O=C1CCC(N2Cc3cc(O[C@H]4CCCC[C@@H]4N4CC(C5CCCC(F)(F)C5)C4)ccc3C2=O)C(=O)N1 (stereo partly drawn) [Compound 20, 3-(5-(((1S,2S)-2-(3-(3,3-difluorocyclohexyl)azetidin-1-yl)cyclohexyl)oxy)-1-oxoisoindolin-2-yl)piperidine-2,6-dione]
> 30 µM | 1 nM |  |  | > 30 µM | 96.7% | 96.7% | CC(C)OC1CCC(C2CN([C@H]3CCCC[C@@H]3Oc3ccc4c(c3)CN(C3CCC(=O)NC3=O)C4=O)C2)CC1 (stereo partly drawn) [Compound 17, 3-(5-(((1S,2S)-2-(3-((trans)-4-isopropoxycyclohexyl)azetidin-1-yl)cyclohexyl)oxy)-1-oxoisoindolin-2-yl)piperidine-2,6-dione]
> 30 µM | 4 nM | 85.1% | 85.1% | > 30 µM |  |  | O=C1CCC(N2Cc3cc(O[C@H]4CCCC[C@@H]4N4CC(C5CCCCC5)C4)ccc3C2=O)C(=O)N1 (stereo partly drawn) [Compound 1, 3-(5-(((1S,2S)-2-(3-cyclohexylazetidin-1-yl)cyclohexyl)oxy)-1-oxoisoindolin-2-yl)piperidine-2,6-dione]
